Source: patent publication US20250281466A1, “USE OF CLOPIDOGREL OR COMBINATIONS THEREOF TO TREAT AMYOTROPHIC LATERAL SCLEROSIS, DAMAGES CAUSED BY THE NORMAL AGING PROCESS, NERVE INJURIES, MUSCULAR DYSTROPHY, STRENUOUS PHYSICAL ACTIVITIES AND OTHER CONDITIONS THAT AFFECT SYNAPSES AS WELL AS SKELETAL MUSCLES” (Brown University, priority 2024, published 2025)
Where two headings read alike, the source gives them in different places.

Legend:
[1] = tested on: SOD1^G93A mice; details: EDL of P120 SOD1^G93A mice, versus vehicle, *p<0.05, n=7-8
Protocol: (§1) We treated SOD1^G93A mice with either vehicle or Clopidogrel (1 mg/kg) for 30 days starting at symptom onset (90 days old). […] The EDL and TA are hindlimb muscles mostly composed of fast-twitch fibers that play similar function in leg movement. These muscles are adjacent to each other and are affected early in ALS38.
Discussion of Research Design (current) and Experimental Methods: Currently Disclosed Aim 1A: Identify the optimal Clopidogrel dose to protect NMJs from ALS.

[2] = tested on: SOD1^G93A mice; details: Clopidogrel 1 mg/kg for 30 days from 90 days old, versus vehicle (FIG. 3C)
Protocol: as §1

[3] = tested on: SOD1^G93A mice; details: P120 SOD1^G93A mice
Excerpt: In FIGS. 4A-4H, DigiGait™ was used for gate analysis of P120 SOD1^G93A mice treated with Vehicle or the P2Y12 antagonist Clopidogrel. […] Scale bar=10 μm.
To this end, before sacrificing mice for histological analysis, we examined the gait patterns of SOD1^G93A mice treated with Clopidogrel and vehicle using the DigiGait™ system.

[4] = tested on: mouse model of ALS
Excerpt: FIGS. 11A-11F provide a summary of Clopidogrel treatment on mouse model of ALS. FIG. 11A (control) and FIG. 11B provide images showing neuromuscular junctions (NMJs) treated with vehicle (control) and Clopidogrel. Blue depicts axons and Magenta muscle region in contact with motor axons.
FIGS. 11A-11F provide a summary of Clopidogrel treatment on a mouse model of ALS. FIG. 11A (control, left) and FIG. 11B (Clopidogrel, right) provide images showing neuromuscular junctions (NMJs) treated with vehicle (control, left) and Clopidogrel (right). Blue (or grey in upper panels) depicts axons and Magenta (grey in lower panels) muscle region in contact with motor axons.

[5] = tested on: SOD1^G93A mice; details: SOD1^G93A mice examined at 15 and 30 days after treatment starting at 90 days of age, compared to vehicle (FIG. 5B)
Excerpt: NeuroScore involved observing the ability of mice to control the position and mobility of both hindlimbs independently of each other. In this 0-4 point scoring system, 0 represents normal control and 4 represents complete loss of the ability to command hindlimb movement (FIG. 5A).
We also assessed disease progression in mice using the neurological scoring system (NeuroScore) which is used to determine disease stage in SOD1^G93A mice. NeuroScore involved observing the ability of mice to control the position and mobility of both hindlimbs independently of each other. In this 0-4 point scoring system, 0 represents normal control and 4 represents complete loss of the ability to command hindlimb movement (for example, see FIG. 5A).

[6] = general statement, no test described; cited from earlier work
[7] = tested on: mice; details: general statement before a planned dose pilot study; cited from earlier work

## COC(=O)[C@H](c1ccccc1Cl)N1CCc2sccc2C1 [Clopidogrel]
[1]
  fully denervated NMJs (analysis of NMJ innervation, FIG. 3B): fewer fully denervated NMJs
[2]
  TA muscle mass: significantly preserved the overall mass of the tibialis anterior (TA) muscle
[2]; listed as clopidogrel
  TA muscle mass: higher TA muscle mass
[3]; compared to vehicle, n=3-5 (FIG. 4A, 4B)
  stride frequency (DigiGait): increases stride frequency
[3]; compared to vehicle, n=3-5 (FIG. 4C, 4D)
  swing duration (DigiGait): reduces swing duration
[3]; forelimb and hindlimb, versus vehicle (FIG. 4G, 4H)
  percent brake of stride (DigiGait): increased
[3]; versus vehicle (FIG. 4E, 4F)
  brake time (DigiGait): increased the brake time
[4]; versus vehicle control (FIG. 11C, 11E)
  intactness of muscle regions in contact with motor axons (NMJ): more intact
[4]; versus vehicle control (FIG. 11D, 11F)
  number of denervated NMJs: reduces the number of denervated NMJs
[5]
  disease progression by NeuroScore (0-4 point scoring system): the disease progressed slower
[6]
  crossing of the blood-brain-barrier (BBB): does not cross the blood-brain-barrier
[7]
  side effects in mice: lethargy, weight loss and internal bleeding
